# Changes are numbered by the printed parent chain. Names may count otherwise.
# T1: full-length human OX40 expressed on HuT78/OX40 cells (human, UniProt P43489 29-277)
# T1 sequence: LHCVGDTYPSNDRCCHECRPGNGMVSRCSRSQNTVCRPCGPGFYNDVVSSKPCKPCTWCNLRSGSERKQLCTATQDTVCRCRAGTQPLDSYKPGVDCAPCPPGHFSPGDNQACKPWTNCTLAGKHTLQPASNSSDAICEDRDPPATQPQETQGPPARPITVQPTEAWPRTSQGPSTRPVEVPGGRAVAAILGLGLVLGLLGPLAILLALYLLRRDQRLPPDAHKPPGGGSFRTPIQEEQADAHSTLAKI
# T2: recombinant OX40 protein with a His tag (Cat: 10481-H08H, Sino Biological) (UniProt P43489 29-216)
# T2 construct: Bought protein; not shown: His tag
# T2 sequence (looked up): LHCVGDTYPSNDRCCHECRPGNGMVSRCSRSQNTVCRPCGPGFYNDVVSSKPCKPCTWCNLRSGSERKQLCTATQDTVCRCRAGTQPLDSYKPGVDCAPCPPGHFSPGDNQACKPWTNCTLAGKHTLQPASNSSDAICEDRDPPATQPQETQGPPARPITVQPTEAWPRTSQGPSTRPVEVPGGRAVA
# T3: interaction between OX40 and OX40 ligand (Mus musculus, UniProt P47741)
# T3 sequence (P47741 20-272): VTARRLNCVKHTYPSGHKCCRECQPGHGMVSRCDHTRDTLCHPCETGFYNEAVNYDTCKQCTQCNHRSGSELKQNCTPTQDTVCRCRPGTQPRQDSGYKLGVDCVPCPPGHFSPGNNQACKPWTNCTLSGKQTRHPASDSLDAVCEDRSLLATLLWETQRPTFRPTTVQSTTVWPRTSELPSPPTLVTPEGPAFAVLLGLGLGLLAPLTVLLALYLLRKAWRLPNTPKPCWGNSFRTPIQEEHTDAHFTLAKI
# T3 sequence (P43488 1-198 partner): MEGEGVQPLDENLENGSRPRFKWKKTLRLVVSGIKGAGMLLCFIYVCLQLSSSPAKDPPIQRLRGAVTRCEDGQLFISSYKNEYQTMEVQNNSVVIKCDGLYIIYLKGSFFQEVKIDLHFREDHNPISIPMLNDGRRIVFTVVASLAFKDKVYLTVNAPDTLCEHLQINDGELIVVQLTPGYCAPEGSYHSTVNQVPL
# B1: 445-2 variant with K28T in the heavy chain and S24R in the light chain (antibody, V domains shown)
# VH: QVQLVQSGAEVKKPGSSVKVSCKASGYTFTSYIIHWVRQAPGQGLEWMGYINPYNEGTRYAQKFQGRVTLTADKSTSTAYMELSSLRSEDTAVYYCARGYYGSSYAMDYWGQGTTVTVSS
# VL: DIQMTQSPSSLSASVGDRVTITCRASQGISNYLNWYQQKPGKAIKLLIYDASTLYSGVPSRFSGSGSGTDFTLTISSLQPEDFATYYCQQYSKLPYTFGGGTKVEIK
# B2: 445-2 variant with Y27G in the heavy chain and S24R in the light chain (antibody, V domains shown)
# VH: B1 VH with Y27G, T28K
# VL: B1 VL
# B3: OX86: rat anti-mouse OX40 antibody of WO2016/057667 engineered with mouse IgG2a constant regions, VH SEQ ID NO: 32, VL SEQ ID NO: 33 (antibody, V domains shown)
# VH: QVQLKESGPGLVQPSQTLSLTCTVSGFSLTGYNLHWVRQPPGKGLEWMGRMRYDGDTYYNSVLKSRLSISRDTSKNQVFLKMNSLQTDDTAIYYCTRDGRGDSFDYWGQGVMVTVSS
# VL: DIVMTQGALPNPVPSGESASITCRSSQSLVYKDGQTYLNWFLQRPGQSPQLLTYWMSTRASGVSDRFSGSGSGTYFTLKISRVRAEDAGVYYCQQVREYPFTFGSGTKLEIK
# modifications: mouse IgG2a constant regions
# What was measured:
# [1] = test system: MC38 cells, a murine colon adenocarcinoma line; assay: MC38 syngeneic colon adenocarcinoma model, 1A7.gr1 and Compound 1; assay type: in vivo, C57BL/6 mice
# Method: Female C57BL/6 mice were subcutaneously implanted with 2×10^7 MC38 cells, a murine colon adenocarcinoma line; in 100 μL PBS in the right frank. After inoculation, mice were randomized into 4 groups according to tumor volume. Mice were treated with vehicle (PEG400/0.1N HCL in saline, 40/60) as a control. 1A7.gr1 (sequence previously disclosed in US 20150307617) was confirmed to bind to mouse OX40 in house.
# The 1A7.gr1 antibody was administered at 2 mg/kg per week by intraperitoneal injection as a single agent. […] The 1A7.gr1 antibody in combination with Compound 1 was administered at the same dosages and routes of administration as described above. Tumor volumes were determined twice weekly.
# [2] = test system: tyrosine kinases, including RET, CBL, CHR4q12, DDR and Trk; details: cited from earlier work
# [3] = test system: CT26WT cells, a murine colon cancer cell line; assay: CT26WT syngeneic colon tumor model, OX86 and Compound 1; assay type: in vivo, BALB/c mice; details: OX86 0.08 mg/kg QW i.p.; Compound 1 15 mg/kg QD p.o.
# Method: Female BALB/c mice were subcutaneously implanted with 1×10^5 CT26WT cells, a murine colon cancer cell line, in 100 μL PBS in the right flank. After inoculation, the mice were randomized into 4 groups with 20 animals in each group according to the inoculation order. The mice were treated with vehicle (PEG400/0.1N HCl in saline, 40/60) as a negative control.
# As monotherapy, OX86 was administered at 0.08 mg/kg once per week (QW) by intraperitoneal (i.p.) injection
# Compound 1 was administered as a single therapy at 15 mg/kg once per day (QD) by oral gavage (p.o.). OX86 was administered at 0.08 mg/kg once per week (QW) by intraperitoneal (i.p.) injection in combination with Compound 1 at 15 mg/kg once per day (QD) by oral gavage (p.o.). Tumor volume was determined twice weekly in two dimensions using a caliper, and was expressed in mm3 using the formula: V=0.5(a×b2) where a and b are the long and short diameters of the tumor, respectively. Data is presented as mean tumor volume ±standard error of the mean (SEM). Tumor growth inhibition (TGI) is calculated using the following formula: […]
# [4] = molecular target: T1, full-length human OX40 expressed on …; assay: FACS; cells not named in the sentence (taken as OX40-expressing cells); reference 445-2
# [5] = molecular target: T2, recombinant OX40 protein with a His tag …; assay: Biacore; OX40 protein not given; reference 445-2
# [6] = molecular target: T3, interaction between OX40 and OX40 ligand; details: cited from earlier work
# [7] = 1A7.gr1 2 mg/kg QW i.p., Compound 1 15 mg/kg QD p.o.
molecule,measurement,setting,value
COCCNCc1ccc(-c2cc3nccc(Oc4ccc(NC(=O)C5(C(=O)Nc6ccc(F)cc6)CC5)cc4F)c3s2)nc1 [Compound 1],Mean Tumor Volume on Day 29 (mean ± SEM),[1]; [7],712.5 mm^3
same,TGI (%) on Day 22,[1]; [7],80%
same,complete response / mice being tumor free on day 22,"[1]; 1A7.gr1 2 mg/kg QW×4, Compound 1 15 mg/kg QD×22",80%
same,inhibition of tyrosine kinases,[2],potent inhibition
same,Mean Tumor Volume on Day 24 (mean ± SEM),[3],177.4 ± 28.5 mm^3
same,TGI (%) on Day 24,[3],91%
same,Tumor Free Animal (%) on Day 69 (complete responders),[3],5%
B1,fold increase to the EC50 over the original 445-2 antibody,[4],1.7 fold
B2,fold increase to the KD over the original 445-2 antibody,[5],1.7 fold
B3,Mean Tumor Volume on Day 24 (mean ± SEM),[3],308.5 ± 115.8 mm^3
same,TGI (%) on Day 24,[3],84%
same,Tumor Free Animal (%) on Day 69 (complete responders),[3],50%
same,blocking of OX40-OX40 ligand interaction,[6],does not block the interaction between OX40 and OX40 ligand
